Legend:
Format in all cases: in vivo, human
healthy adult subjects [1] = assay: Clinical study: gastrointestinal tolerance, stool frequency and consistency
Experimental: For the pre-study tolerance test, subjects were instructed to not consume anything the day before that was known by them to cause gastrointestinal symptoms. They also completed an overnight 10-16 hour fast. The morning of the test visit, subjects reported to the study site and consumed 8 fl oz of one of the two study beverages within 10 minutes. The study beverage contained either 25 […] of maltodextrin or 25 grams of gamma-cyclodextrin. Subjects then resumed fasting. Subjects were allowed to leave the study site after the beverage had been consumed, however they were instructed to remain fasting for three hours from the time they began drinking the beverage. Subjects recorded gastrointestinal tolerance symptoms and stool frequency and consistency for 24 hours from the time they began drinking the study beverage. Upon subject completion of the gastrointestinal tolerance symptoms and stool frequency and consistency forms, the data were reviewed for signs of abnormal tolerance by a physician. The purpose of this symptom review was to determine if the product was generally well-tolerated. […] After the 180-minute blood and breath samples were collected, the subject was allowed to leave the study site and collect the remaining breath samples (hours 4-8) on their own. During the remainder of the breath collection period, the subject was instructed to refrain from sleep and exercise. Subjects were to remain fasting with the exception of an optional one or two 8 fl oz cans of Ensure® Plus. The flavor given to each subject was the same as that which was chosen for the pre-treatment meals, and the number of cans chosen remained constant for both treatments. Subjects were allowed to consume water as desired during this time. After completion of breath sample collection, subjects were free to resume their normal sleeping, eating, and exercise patterns. They continued to record gastrointestinal symptoms, stool frequency and consistency, and medication usage for the next 48 hours. […]

healthy adult subjects [2] = assay: Clinical study: breath hydrogen test for carbohydrate malabsorption; conditions: 3 hours after 50 g oral; p=0.01
Experimental: Upon completion of baseline samples, the subject proceeded to the study site and consumed 16 fl oz of one of the two test beverages in no more than 10 minutes. After consumption of the study beverage, the subject resumed fasting. Time 0 was designated as the time at which the subject began drinking the study beverage. Additional venous blood samples and capillary plasma glucose finger sticks were collected at 15, 30, 45, 60, 90, 120, 150, and 180 […] minutes after the start of the study beverage. Additional breath samples were collected at 1, 2, 3, 4, 5, 6, 7, and 8 (±10 minutes) hours postprandially. Subjects were limited to the consumption of 8 fl oz of water during this three hour blood collection period. Approximately 10 mL of normal saline was injected into the vein after each blood draw in order to keep the line open and to replace the fluid lost from the blood collected.
After the 180-minute blood and breath samples were collected, the subject was allowed to leave the study site and collect the remaining breath samples (hours 4-8) on their own. During the remainder of the breath collection period, the subject was instructed to refrain from sleep and exercise. Subjects were to remain fasting with the exception of an optional one or two 8 fl oz cans of Ensure® Plus. […]
Breath hydrogen was analyzed to determine if the carbohydrate in the study product had been malabsorbed. […]

healthy adult subjects [3] = assay: Clinical study: postprandial serum insulin response (ELISA)
Description: Thirty-two healthy adult subjects received two treatments in a double-masked, randomized, crossover design. The two treatments consisted of 50 g challenges of either maltodextrin or gamma-cyclodextrin. Blood samples were collected over a three-hour period, and breath samples collected over an eight-hour period following consumption of each carbohydrate. […] This study utilized a randomized, double-masked, crossover design, with a 4-14 day washout period between treatments. Before completing the two treatment visits, each subject completed one pre-study gastrointestinal tolerance test visit. Randomization was carried out by sealed envelopes stating which pre-study treatment was to be received, as well as in which sequence the two treatment visits were to be carried out. These envelopes were prepared from randomization schedules generated at Ross Products Division of Abbott Laboratories, Two product coordinators assigned an envelope from the top of the pile to each subject in the order that they passed all screening criteria and were given subject numbers. Besides carrying out randomization, the product coordinators were responsible for study product inventory and serving the appropriate product to subjects at each visit so that other study staff could not become aware of the study product identity. […] At each of the two treatment visits, subjects received 16 fl oz of a study product containing either 50 g of maltodextrin or 50 g of gamma-cyclodextrin. All beverages were served cold in styrofoam cups with lids and straws, labeled only with the subject number, subject initials and visit number, with the intention of hiding any slight differences in appearance that could be visible to study staff or subjects. […] A breath sample was collected for measurement of breath hydrogen. […] After consumption of the study beverage, the subject resumed fasting. Time 0 was designated as the time at which the subject began drinking the study beverage. […] Subjects were limited to the consumption of 8 fl oz of water during this three hour blood collection period. Approximately 10 mL of normal saline was injected into the vein after each blood draw in order to keep the line open and to replace the fluid lost from the blood collected. Insulin was analyzed using DSL-10-1600 Insulin ELISA Kits (Diagnostic Systems Laboratories, mc, Webster, Tex.). […] An acidic stopping solution is then added and the enzymatic turnover of TMB is determined by dual wavelength absorbance measurement at 450 and 620 nanometers. […] is proportional to the concentration of insulin present. […]

**Q.** With `OC[C@H]1O[C@@H]2O[C@H]3[C@H](O)[C@@H](O)[C@@H](O[C@H]4[C@H](O)[C@@H](O)[C@@H](O[C@H]5[C@H](O)[C@@H](O)[C@@H](O[C@H]6[C@H](O)[C@@H](O)[C@@H](O[C@H]7[C@H](O)[C@@H](O)[C@@H](O[C@H]8[C@H](O)[C@@H](O)[C@@H](O[C@H]9[C@H](O)[C@@H](O)[C@@H](O[C@H]1[C@H](O)[C@H]2O)O[C@@H]9CO)O[C@@H]8CO)O[C@@H]7CO)O[C@@H]6CO)O[C@@H]5CO)O[C@@H]4CO)O[C@@H]3CO` [Gamma-Cyclodextrin, Gamma-cyclodextrin] as the compound, how does the “Gastrointestinal tolerance versus maltodextrin, pre-study tolerance test” value (healthy adult subjects [1]; 25 grams oral, 24 hours, reviewing physician) read?
**A.** no significant differences

**Q.** And the “Stool frequency and consistency, difference between treatments” value (healthy adult subjects [1]; 50 g oral)?
**A.** no significant differences

**Q.** And the “Intensity and frequency of nausea, difference between treatments” value (healthy adult subjects [1]; first 24 hours after 50 g oral, crossover analysis)?
**A.** not significantly different

**Q.** What about the “Breath hydrogen compared to maltodextrin” value (healthy adult subjects [2]) of the same compound?
**A.** significantly higher

**Q.** And the “Serum insulin area under the curve (AUC), effect versus maltodextrin” value (healthy adult subjects [3]; 50 g oral challenge)?
**A.** significantly reduced

**Q.** And the “Positive incremental 120 min serum insulin AUC” value (healthy adult subjects [3]; 50 g oral, mean±SEM, n=27 maltodextrin, n=31 gamma-cyclodextrin)?
**A.** 993.4±131.6

**Q.** What about the “Adjusted peak insulin value compared with maltodextrin” value (healthy adult subjects [3]; 50 g oral, p=0.0003) of the same compound?
**A.** significantly decreased

**Q.** What about the “Relative insulinemic response compared to maltodextrin” value (healthy adult subjects [3]; baseline to 120 min, 50 g oral) of the same compound?
**A.** 51%

From patent publication US8420621B2, “Methods of using gamma cyclodextrin to control blood glucose and insulin secretion” (Abbott Laboratories, priority 2004, dated 2013)
